Several values for one entry are separate records, joined by “and”; a condition that tells them apart may be missing. Equal entries are not always repeated. Entries after “also recorded” stand apart in the source; their conditions may differ.
Tested on: not listed separately
Assay: Transmission electron microscopy of N-X-Phe-DAP/siRNA nanoparticles
Type: physicochemical
Conditions: N-X-Phe-DAP/siRNA nanoparticles; 5 μM derivative, 30 nM siRNA; ± standard deviation
Method: Each N-X-Phe-DAP derivative (100 μM) was mixed with siRNA (600 nM) in H2O for 30 minutes, followed by dilution of this mixture into DMEM cell culture media to final concentrations of 5 μM N-X-Phe-DAP derivative and 30 nM siRNA. Dynamic light scattering (DLS) and transmission electron microscopy (TEM) were utilized to analyze the physical characteristics of the resulting N-X-Phe-DAP/siRNA nanoparticles (Table 2, FIG. 4). […] Average diameter (nm), determined by dynamic light scattering (DLS) and TEM imaging, is reported as the average of […] with the error reported as the standard deviation of the mean. Binding affinity (Kd) of each agent to siRNA was determined by a slot blot filtration assay with values reported as the average of three measurements and error reported as the standard deviation of the mean. […] (B) Diameter (nm) determined by TEM (n=9, ***p≤0.001 ****p≤0.0001).
Transmission Electron Microscopy: N-X-Phe-DAP derivatives (100 μM) were complexed with siRNA (600 nM) in Ultrapure™ DNase/RNase-Free Distilled Water (Invitrogen 10977015) and allowed to incubate for 30 minutes at room temperature. These solutions were then diluted into water to give final concentrations of 5 μM Phe derivative and 30 nM siRNA. Samples (5 μL) were spotted on 200 mesh carbon coated copper grids and excess solvent was removed by capillary action with filter paper after 60 seconds. Grids were then stained with uranyl acetate (5 μL) for 60 seconds by excess solvent was removed by capillary action with filter paper. Grids were left to dry for 10 minutes. Images were taken using a Hitachi 7650 transmission electron microscope with an accelerating voltage of 80 kV.

Row | Diameter (nm), TEM | SMILES
1 | 170 ± 8 nm | NCCCNC(=O)[C@H](Cc1cccc(F)c1)NC(=O)OCC1c2ccccc2-c2ccccc21 [Fmoc-3F-Phe-DAP]
2 | 140 ± 12 nm | NCCCNC(=O)[C@H](Cc1c(F)c(F)c(F)c(F)c1F)NC(=O)OCC1c2ccccc2-c2ccccc21 [Fmoc-F5-Phe-DAP]
3 | 93 ± 9 nm | NCCCNC(=O)[C@H](Cc1ccccc1)NC(=O)OCc1ccccc1 [Cbz-Phe-DAP]
4 | 163 ± 10 nm | NCCCNC(=O)[C@H](Cc1ccccc1)NC(=O)CC1c2ccccc2-c2ccccc21 [Fm-Phe-DAP]
5 | 136 ± 7 nm | NCCCNC(=O)[C@H](Cc1ccccc1)NC(=O)OCC1c2ccccc2-c2ccccc21 [Fmoc-Phe-DAP]
6 | 211 ± 17 nm | NCCCNC(=O)[C@H](Cc1ccccc1)NC(=O)Cc1cccc2ccccc12 [1-Nap-Phe-DAP]

More lines, now with the values behind:

Row | SMILES | Diameter (nm), TEM
7 | NCCCNC(=O)[C@H](Cc1ccccc1)NC(=O)Cc1ccc2ccccc2c1 [2-Nap-Phe-DAP] | 450 ± 27 nm
8 | NCCCNC(=O)[C@H](Cc1ccccc1)NC(=O)C1CCCCC1 [Cyc-Phe-DAP] | 71 ± 2 nm
9 | CCCCCCC(=O)N[C@@H](Cc1ccccc1)C(=O)NCCCN [Hex-Phe-DAP] | 81 ± 10 nm
10 | NCCCNC(=O)[C@H](Cc1ccccc1)NC(=O)CCCc1ccc2ccc3cccc4ccc1c2c34 [Pyr-Phe-DAP] | 50 ± 5.0 nm

Same assay, conditions: TEM images, FIG. 4

Row | morphology of siRNA nanoparticles/aggregates | SMILES
11 | smaller spheres | NCCCNC(=O)[C@H](Cc1ccccc1)NC(=O)OCc1ccccc1 [Cbz-Phe-DAP]
12 | spherical micelle-like structures | NCCCNC(=O)[C@H](Cc1ccccc1)NC(=O)CC1c2ccccc2-c2ccccc21 [Fm-Phe-DAP]
13 | spherical micelle-like structures | NCCCNC(=O)[C@H](Cc1ccccc1)NC(=O)OCC1c2ccccc2-c2ccccc21 [Fmoc-Phe-DAP]
14 | spherical micelle-like structures | NCCCNC(=O)[C@H](Cc1ccccc1)NC(=O)Cc1cccc2ccccc12 [1-Nap-Phe-DAP]

The next lines start with the molecule.

Row | SMILES | morphology of siRNA nanoparticles/aggregates
15 | NCCCNC(=O)[C@H](Cc1ccccc1)NC(=O)Cc1ccc2ccccc2c1 [2-Nap-Phe-DAP] | spherical micelle-like structures
16 | NCCCNC(=O)[C@H](Cc1cccc(F)c1)NC(=O)OCC1c2ccccc2-c2ccccc21 [Fmoc-3F-Phe-DAP] | mixtures of spherical particles and one-dimensional fibril-like structures
17 | NCCCNC(=O)[C@H](Cc1c(F)c(F)c(F)c(F)c1F)NC(=O)OCC1c2ccccc2-c2ccccc21 [Fmoc-F5-Phe-DAP] | mixtures of spherical particles and one-dimensional fibril-like structures
18 | NCCCNC(=O)[C@H](Cc1ccccc1)NC(=O)C1CCCCC1 [Cyc-Phe-DAP] | smaller spheres
19 | CCCCCCC(=O)N[C@@H](Cc1ccccc1)C(=O)NCCCN [Hex-Phe-DAP] | mixtures of spherical particles and one-dimensional fibril-like structures; also recorded: primarily exhibiting fibril and sheet-like structures that aggregate into bundles
20 | NCCCNC(=O)[C@H](Cc1ccccc1)NC(=O)CCCc1ccc2ccc3cccc4ccc1c2c34 [Pyr-Phe-DAP] | mixtures of spherical particles and one-dimensional fibril-like structures; also recorded: dominated by fibril-like structures with some evidence of spherical nanoparticles

Tested on: A549 cells
Assay: MTT cytotoxicity assay
Type: cell-based, human
Conditions: normalized to naïve control, ± SEM
Method: A549 cells were dosed with 100 µM of these derivatives for 4 h (FIG. 7A), 24 h (FIG. 7B), and 48 h (FIG. 7C). FIG. 7 reports cell viability as percent viability of A549 cells normalized to naïve control. (A) Cell viability after 4 h dosing (n=3, *p≤0.05, **p≤0.01). (B) Cell viability after 24 h dosing (n=3, *p≤0.05, **p≤0.01). (C) Cell viability after 48 h dosing (n=3, *p≤0.05, **p≤0.01, ****p≤0.0001). […] An MTT assay was performed after dosing for 4 h, 24 h, 48 h, or 4 h with media change and additional 48 h incubation. Average values are reported with calculated standard error of the mean (SEM).
The cells will also recover after exposure to N-X-Phe-DAP derivatives under conditions that resemble knockdown experiments. Cells were dosed with N-X-Phe-DAP derivatives or Lipofectamine for 4 hours, after which the media was aspirated and replaced with DMEM cell culture media and incubated for an additional 48 hours (FIG. 8). This protocol mimics the gene knockdown experiments and acts as a better indication of how cytotoxicity may impact gene silencing measurements.
Sample Preparation for Cell-Based Experiments: For delivery analysis and functional knockdown, N-X-Phe-DAP derivatives (10 μL, 1 mM) or Lipofectamine 3000 (6 μL) was mixed with TTF-1 siRNA (Santa Cruz Biotechnology sc-36756, 6 μL, 10 μM) in Ultrapure™ DNase/RNase-Free Distilled Water (Invitrogen 10977015) to give a final volume of 100 μL. These mixtures were incubated for 30 minutes at room temperature, followed by dilution into 1×DMEM (Gibco 11965092, 1.9 mL). For cytotoxicity assays, N-X-Phe-DAP derivatives (10 μL, 1 mM) were diluted into 1×DMEM (Gibco 11965092, 1.9 mL).
MTT Cytotoxicity Assay: All cytotoxicity assays were performed in triplicate. A549 cells were seeded at a density of 2400 cells/well in a 96-well plate (200 μL) and grown to 70-90% confluency. Cells were washed with 1×PBS (200 μL), N-X-Phe-DAP derivatives were added (200 μL/well), and incubated 4 h, 24 h, or 48 h at 37° C., 5% CO2 or for 4 h at 37° C., 5% CO2 followed by washing with 1×PBS and addition of complete media containing 1×DMEM (Gibco 11965092), 10% fetal bovine serum (FBS, Invitrogen 26140087), and 1× antibiotic-antimycotic (Gibco 15240-062). A solution of thiazoyl blue tetrazolium bromide (MTT, 1 mg/mL) was prepared in 1×DMEM devoid of phenol red (Invitrogen 31053028). After the appropriate incubation time, cells were washed with 1×PBS, dosed with MTT (200 μL), and incubated an additional 1 h at 37° C., 5% C02 in the dark. The 96-well plate was centrifuged for 5 min at 4000 rpm, the media was aspirated, and DMSO (100 μL) was added to the wells. Absorbance measurements (550 nm) were taken on a Tecan Infinite M1000 Pro plate reader. Cell viability was then calculated and normalized to the naïve control.

Row | SMILES | Cell Viability (%) 4 h Dosing | Cell Viability (%) 24 h Dosing | Cell Viability (%) 48 h Dosing | Cell Viability (%) Media Change After 4 h Followed by 48 h Incubation
21 | NCCCNC(=O)[C@H](Cc1ccccc1)NC(=O)Cc1ccc2ccccc2c1 [2-Nap-Phe-DAP] | 50.4 ± 1.5% | 58.3 ± 6.0% | 44.3 ± 8.7% | 60.7 ± 1.6%
22 | NCCCNC(=O)[C@H](Cc1cccc(F)c1)NC(=O)OCC1c2ccccc2-c2ccccc21 [Fmoc-3F-Phe-DAP] | 59.9 ± 3.8% | 75.3 ± 5.0% | 42.0 ± 2.4% | 71.1 ± 6.3%
23 | NCCCNC(=O)[C@H](Cc1c(F)c(F)c(F)c(F)c1F)NC(=O)OCC1c2ccccc2-c2ccccc21 [Fmoc-F5-Phe-DAP] | 48.1 ± 5.9% |  |  | 54.2 ± 6.2%
24 | NCCCNC(=O)[C@H](Cc1ccccc1)NC(=O)C1CCCCC1 [Cyc-Phe-DAP] | 58.3 ± 9.2% | 59.6 ± 4.9% | 60.4 ± 2.6% | 67% and 66.5 ± 5.1%
25 | NCCCNC(=O)[C@H](Cc1ccccc1)NC(=O)OCc1ccccc1 [Cbz-Phe-DAP] | 60.8 ± 3.8% | 69.8 ± 8.2% | 53.7 ± 3.0% | 50.2 ± 3.4%
26 | NCCCNC(=O)[C@H](Cc1ccccc1)NC(=O)CC1c2ccccc2-c2ccccc21 [Fm-Phe-DAP] | 60.7 ± 3.6% | 51.7 ± 4.4% | 26.7 ± 4.0% | 72.6 ± 7.4%
27 | CCCCCCC(=O)N[C@@H](Cc1ccccc1)C(=O)NCCCN [Hex-Phe-DAP] | 38.9 ± 3.7% | 66.0 ± 5.5% | 52.1 ± 4.5% | 53% and 53.1 ± 4.5%
28 | NCCCNC(=O)[C@H](Cc1ccccc1)NC(=O)OCC1c2ccccc2-c2ccccc21 [Fmoc-Phe-DAP] | 76.3 ± 2.8% | 96.5 ± 3.2% | 63.7 ± 5.1% | 76.1 ± 4.9%
29 | NCCCNC(=O)[C@H](Cc1ccccc1)NC(=O)CCCc1ccc2ccc3cccc4ccc1c2c34 [Pyr-Phe-DAP] | 17.2 ± 1.1% | 2.6 ± 0.8% |  | 22.3 ± 2.7%
30 | NCCCNC(=O)[C@H](Cc1ccccc1)NC(=O)Cc1cccc2ccccc12 [1-Nap-Phe-DAP] | 65.3 ± 3.7% | 69.5 ± 5.9% | 45.1 ± 3.1% | 56.5 ± 1.1%

Same assay, conditions: normalized to naïve control, ± SEM, listed as Fmoc-Pyr-DAP

Row | SMILES | Cell Viability (%) 4 h Dosing | Cell Viability (%) 24 h Dosing
31 | NCCCNC(=O)[C@H](Cc1ccccc1)NC(=O)CCCc1ccc2ccc3cccc4ccc1c2c34 [Pyr-Phe-DAP] | less than 20% | < 3%
